Values quoted from earlier work as cited in patent US5932596A, “Imidazoylalkyl substituted with a six membered nitrogen containing nitrogen containing heterocyclic ring” (Schering Corporation, priority 1995, dated 1999).

Test system: H3 receptors
Conditions: rat brain; Arrang et al.

In the case of `NCCc1c[nH]cn1` [histamine], the “maximal inhibition of release” value is given as “approximately 60%”.
